Read-outs that look alike come from different tables or passages of the source.
Legend:
[1] = system: HUVEC cells; test: CCK-8 cell survival: ameliorating proliferative toxicity of VEGF/VEGFR inhibitor (Examples 4-15); assay type: cell-based; conditions: agent 100 μM, 24-48 h
[2] = system: HaCaT cells; assay type: cell-based, human
[3] = system: HUVEC cells; assay type: cell-based; conditions: Sorafenib (V1) 10 μM + agent 50 μM, 24 hours, CCK-8
[4] = system: Calmodulin (CaM); test: Western Blot expression level in HaCaT cells (Example 147); assay type: cell-based, human; conditions: 24 hours, compared with the control group
Experimental: In the present application, compared effect of the nitric oxide releasing agent with calcium channel blocker on expression levels of calmodulin and calreticulin in HaCat cell The cultured HaCaT cells were digested, suspended, counted, and seeded into a 6-well plate with 200,000 cells per well. After the cells were attached, a nitric oxide releasing agent (or calcium channel blocker) solution was added to achieve a particular final concentration. A basic medium was added into the control group. At 24 hours after administration of the nitric oxide releasing agent (or calcium channel blocker), RIPA lysate [MUT], Beyotime Biotechnology) was used to extract protein. The change of expressions of calmodulin and calreticulin was determined by Western Blot. […] Image Lab was used to analyze the gray value results. GraphPad Prism 6.0 Software and t-test were used to carry out a statistic analysis of the results and plot a graph. Of those, represents P<0.001, ** represents P<0.01, * represents P<0.05, indicating a significant difference as compared with the corresponding control group; as statistically analyzed by using t-test.

[5] = HaCaT, Sorafenib (V1) 10 μM + agent 50 μM, 24 hours, CCK-8

| SMILES | Cell Survival Rate (viable cells increased vs VEGF/VEGFR inhibitor group) ([1]; Regorafenib 10 μM) | Cell Survival Rate (viable cells increased vs VEGF/VEGFR inhibitor group) ([1]; Sorafenib 5 μM) | Cell Survival Rate (viable cells increased vs VEGF/VEGFR inhibitor group) ([1]; Sunitinib 5 μM) | Cell Survival Rate (viable cells increased vs VEGF/VEGFR inhibitor group) ([1]; Apatinib 10 μM) | Cell Survival Rate (viable cells increased vs VEGF/VEGFR inhibitor group) ([1]; Axitinib 10 μM) | Cell Survival Rate (viable cells increased vs VEGF/VEGFR inhibitor group) ([1]; Lenvatinib Mesylate 10 μM) | Cell Survival Rate (viable cells increased vs VEGF/VEGFR inhibitor group) ([1]; Nintedanib Esylate 10 μM) | Cell Survival Rate (viable cells increased vs VEGF/VEGFR inhibitor group) ([1]; Pazopanib Hydrochloride 10 μM) | Cell Survival Rate (viable cells increased vs VEGF/VEGFR inhibitor group) ([1]; Thalidomide 10 μM) | further results |
| --- | --- | --- | --- | --- | --- | --- | --- | --- | --- | --- |
| NCCN(CCN)/[N+]([O-])=N/O [3,3-Bis (aminoethyl)-1-hydroxy-2-oxo-1-triazene] | Increased by 15-20% | Increased by 35-45% | Increased by 20-30% | – | – | – | – | – | – | – |
| N=c1c[n+](N2CCOCC2)[n-]o1 [3-morpholinosydnonimine] | Increased by 15-20% | Increased by 30-40% | Increased by 10-20% | – | – | – | – | – | – | – |
| CC(C)CCON=O [Isoamyl Nitrite] | Increased by 15-20% | Increased by 30-40% | Increased by 20-25% | Increased by 40-50% | Increased by 20-30% | Increased by 30-50% | Increased by 30-50% | Increased by 20-30% | Increased by 20-30% | – |
| O=[N+]([O-])O[C@H]1CO[C@H]2[C@@H]1OC[C@H]2O[N+](=O)[O-] [Isosorbide Dinitrate] | – | – | – | – | – | – | – | – | – | Cell Survival Rate (percentage of viable cells increased as compared to the VEGF/VEGFR inhibitor group) [2, 5]: by 20-50% |
| O=[N+]([O-])O[C@@H]1CO[C@H]2[C@@H]1OC[C@@H]2O [Isosorbide Mononitrate] | Increased by 20-30% | Increased by 30-35% | Increased by 20-25% | – | – | – | – | – | – | Cell Survival Rate (percentage of viable cells increased as compared to the VEGF/VEGFR inhibitor group) [2, 5]: by 20-50%; Cell Survival Rate (percentage of viable cells increased as compared to the VEGF/VEGFR inhibitor group) [3]: by 20-40% |
| CCOC(=O)[N-]c1cn(N2CCOCC2)n[o+]1 [Molsidomine] | Increased by 20-30% | Increased by 30-40% | Increased by 20-30% | Increased by 40-50% | Increased by 20-30% | Increased by 30-50% | Increased by 30-50% | Increased by 20-30% | Increased by 20-30% | – |
| O=C(NCCO[N+](=O)[O-])c1cccnc1 [Nicorandil] | Increased by 20-30% | Increased by 50-60% | Increased by 10-20% | Increased by 40-50% | Increased by 20-30% | Increased by 30-50% | Increased by 30-50% | Increased by 20-30% | Increased by 20-30% | – |
| O=[N+]([O-])OCC(CO[N+](=O)[O-])O[N+](=O)[O-] [Nitroglycerin] | – | – | – | – | – | – | – | – | – | Cell Survival Rate (percentage of viable cells increased as compared to the VEGF/VEGFR inhibitor group) [2]: by 20-40%; Cell Survival Rate (percentage of viable cells increased as compared to the VEGF/VEGFR inhibitor group) [3]: by 25-50% |
| CCCc1nn(C)c2c(=O)[nH]c(-c3cc(S(=O)(=O)N4CCN(C)CC4)ccc3OCC)nc12 [Sildenafil] | No significant change | No significant change | No significant change | – | – | – | – | – | – | – |
| COc1ccc([C@@H]2Sc3ccccc3N(CCN(C)C)C(=O)[C@@H]2OC(C)=O)cc1 [diltiazem] | – | – | – | – | – | – | – | – | – | expression level of calmodulin (CaM), gray value analysis [4]: decreased significantly |
